Assay results published in patent US11162071B2, “Compositions and methods for generating hair cells by upregulating JAG-1” (Frequency Therapeutics, Inc., priority 2018, dated 2021).
Entries after “also recorded” stand apart in the source; their conditions may differ.

Columns and labels:
HDAC [1] = conditions: Table 6, cited from earlier work; for Class selectivity: HDAC class
[2] = test system: cochlear Lgr5 progenitor cells; test: Expansion and enrichment of Lgr5-GFP cochlear progenitor cells in 3D culture (Lgr5+ assay); type: cell-based, mouse
From the text: “Stem Cell Proliferation Assay” as used herein is an assay to determine the capacity for agent(s) to induce the creation of stem cells from a starting cell population. In an exemplary Stem Cell Proliferation Assay, the number of cells for an initial cell population is harvested from a Lgr5-GFP mouse such as a B6.129P2-Lgr5tm1(cre/ERT2)Cle/J mouse (also known as Lgr5-EGFP-IRES-creERT2 or Lgr5-GFP mouse, Jackson Lab Stock No: 008875) between the age of 0 to 5 days, by isolating the organ of Corti sensory epithelium and dissociating the epithelium into single cells. Approximately 5000 cells are entrapped in 40 μl of culture substrate (for example: Matrigel (Corning, Growth Factor Reduced)) and placed at the center of wells in a 24-well plate with 500 μl of an appropriate culture media, growth factors and agent being tested. Appropriate culture media and growth factors include Advanced DMEM/F12 with media Supplements (1×N2, 1× B27, 2 mM Glutamax, 10 mM HEPES, 1 mM N-acetylcysteine, and 100 U/ml Penicillin/100 μg/ml Streptomycin) and growth factors (50 ng/ml EGF, 50 ng/ml bFGF, and 50 ng/ml IGF-1) as well as the agent(s) being assessed are added into each well. Cells are cultured for 10 days in a standard cell culture incubator at 37° C. and 5% CO2, with media change every 2 days. The number of Lgr5+ cells is quantified by counting the number of cells identified as Lgr5+ in an In Vitro Lgr5 activity assay. The fraction of cells that are Lgr5+ is quantified by dividing the number of cells identified as Lgr5+ in a cell population by the total number of cells present in the cell population. The number of hair cells in a population may be measured by staining with hair cell marker (e.g., Myosin VIIa), or using an endogenous reporter of hair cell genes (e.g., Pou4f3-GFP, Atoh1-nGFP) and analyzing using flow cytometry. The fraction of cells that are hair cells is quantified by dividing the number of cells identified as hair cells in a cell population by the total number of cells present in the cell population. Gene and/or protein expression and/or activity is measured in this assay using methods known in the art such as by PCR, Nanostring, immunostaining, RNAseq, RNA hybridization, or Western blot analysis.
Neonatal Lgr5-EGFP-IRES-Cre-ER mice (The Jackson Laboratory, strain 8875) were used to analyze the effects of small molecules on cochlear stem cell expansion (see Barker et al., Nature 449, 1003-7 (2007). This strain allowed for visualization and quantification of EGFP cells.
All animal studies were conducted under an approved institutional protocol per National Institutes of Health guidelines. Using neonatal animals, cochleae were dissected and the organ of Corti (sensory epithelium) was separated from the stria vascularis (ion transport epithelium) and the modiolus (nerve tissue). Epithelia were then collected and treated with TrypLE for 15-20 minutes to obtain single cells. The cells were then filtered ([…]) and suspended in a Matrigel (Corning) dome for 3D culture seeded at 0.5 cochlea per well.
Expansion of Lgr5 Cells: Cells were cultured in a 3D system and bathed in a serum free 1:1 mixture of DMEM and F12, supplemented with Glutamax (GIBCO), N2, B27 (Invitrogen), EGF (50 ng/mL; Chemicon), bFGF (50 ng/mL; Chemicon), IGF-1 (50 ng/mL; Chemicon), and small molecules for seven days. Media was changed every other day. Treatments were run in triplicate or quadruplicate.
Lgr5 cells were quantified after 7-10 days. Cell colonies were dissociated into single cells using TrypLE. The cells were then stained with propidium iodide (PI) and analyzed using a flow cytometer to count Lgr5-EGFP cells. The percentage of viable Lgr5 cells was plotted against the concentration in GraphPad Prism.
Organ of Corti are dissected from Lgr5 GFP+ mice and dissociated as single cells as described above. Background media contains the same supplements and growth factors at the same concentrations as described above. […]

HDAC [3] = test: HDAC inhibition in Lgr5 cell culture (FIG. 5); type: cell-based; conditions: with and without CHIR; EFI background (FIG. 5)
Jag-1 [4] = test: Jag-1 expression in cultured Lgr5+ cells, Western blot band intensity normalized to GAPDH; type: cell-based, mouse
Method: Calculated Jag-1 normalized to GAPDH using GelQuant software and bands quantified. Net volumes of Jag-1 bands were divided by net volume values of matched GAPDH bands. These values were normalized to vehicle in a background of growth factors including: 50 ng/mL EGF (E), 50 ng/mL bFGF (F), and 50 ng/mL IGF1 (I).
Cultures contained a background of growth factors including: 50 ng/mL EGF (E), 50 ng/mL bFGF (F), and 50 ng/mL IGF1 (I).
Calculated Jag-1 normalized to GAPDH using GelQuant software and bands quantified. Net volumes of Jag-1 bands were divided by net volume values of matched GAPDH bands. These values were normalized to vehicle.

Jag-1 [5] = test: Jag-1 upregulation/expression in cultured Lgr5+ cells (qPCR); type: cell-based, mouse; conditions: for Jag-1 upregulation: EFI background (FIG. 3)
GSK-3 alpha [6] = biological target: GSK-3 alpha (Homo sapiens, UniProt P49840); conditions: Table 3; cited from earlier work
Sequence of GSK-3 alpha (Homo sapiens, UniProt P49840) (P49840 whole entry): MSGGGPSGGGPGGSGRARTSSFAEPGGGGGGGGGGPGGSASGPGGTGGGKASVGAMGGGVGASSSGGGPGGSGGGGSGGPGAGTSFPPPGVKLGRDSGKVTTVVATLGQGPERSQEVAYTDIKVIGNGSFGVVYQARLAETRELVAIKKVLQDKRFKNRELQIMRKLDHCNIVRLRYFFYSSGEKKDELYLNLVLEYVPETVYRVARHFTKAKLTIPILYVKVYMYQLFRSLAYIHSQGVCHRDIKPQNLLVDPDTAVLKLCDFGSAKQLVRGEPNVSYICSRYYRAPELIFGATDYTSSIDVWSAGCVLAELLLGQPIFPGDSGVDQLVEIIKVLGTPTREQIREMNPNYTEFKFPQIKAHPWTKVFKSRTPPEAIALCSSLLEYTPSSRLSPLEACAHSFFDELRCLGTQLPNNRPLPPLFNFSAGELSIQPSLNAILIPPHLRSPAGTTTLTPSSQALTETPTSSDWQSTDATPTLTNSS

GSK-3 alpha [7] = biological target: GSK-3 alpha (Homo sapiens, UniProt P49841); conditions: GSK-3 alpha of Table 3; cited from earlier work
Sequence of GSK-3 alpha (Homo sapiens, UniProt P49841) (P49841 whole entry): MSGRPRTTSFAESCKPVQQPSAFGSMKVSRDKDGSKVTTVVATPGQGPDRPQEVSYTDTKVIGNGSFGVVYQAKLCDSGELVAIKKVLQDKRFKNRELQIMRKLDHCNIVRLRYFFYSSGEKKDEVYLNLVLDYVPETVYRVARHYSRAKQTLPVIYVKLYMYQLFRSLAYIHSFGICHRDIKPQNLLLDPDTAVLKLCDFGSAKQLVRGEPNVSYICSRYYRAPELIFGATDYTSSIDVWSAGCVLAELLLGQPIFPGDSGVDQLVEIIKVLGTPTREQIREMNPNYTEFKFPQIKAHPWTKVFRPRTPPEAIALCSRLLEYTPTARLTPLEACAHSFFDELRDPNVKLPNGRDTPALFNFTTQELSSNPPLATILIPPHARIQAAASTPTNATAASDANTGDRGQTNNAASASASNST

[8] = control compounds CHIR99021 4 μM and Valproic Acid 1 mM, EFI background
[9] = AS1842856 425 nM alone, EFI background
[10] = AS1842856 concentration series, EFI background (FIG. 7)
[11] = daprodustat 1.11 μM with CHIR 4 μM + VPA 1 mM, versus CHIR and CHIR+VPA, EFI background
[12] = VO-Ohpic 3 μM added to CHIR, versus CHIR, EFI background
[13] = 1,4-DPCA 370 nM with CHIR 4 μM + VPA 1 mM, versus CHIR+VPA, EFI background
[14] = SF1670 0.1 μM added to CHIR, versus CHIR, EFI background

## CCCC(CCC)C(=O)[O-].[Na+] [Sodium Valproate]
HDAC [1]
  Class selectivity: Class I
  HDAC Potenc: 39 to 161 µM
[2]; [8]
  enrichment of Lgr5 GFP+ cochlear progenitor cells: enrich
HDAC [3]
  HDAC inhibition: concentration dependent increase in HDAC inhibition
Jag-1 [4]; AS1842856 425 nM plus VPA 1 mM, versus AS1842856 alone
  Jag-1 upregulation: enhanced the effects of 425 nM AS1842856 on Jag-1 upregulation

## C#CCC(CCCCCC)C(=O)O (centres unmarked) [2-hexyl-4-pentynoic acid]
HDAC [1]
  Class selectivity: Class I
  HDAC Potenc: 13 µM

## CCn1cc(C(=O)O)c(=O)c2c(N)c(F)c(NC3CCCCC3)cc21 [AS1842856]
Jag-1 [5]; qPCR, AS1842856 425 nM alone, EFI background
  Jag-1 expression: upregulates Jag-1 expression
[2]; [9]
  expansion of cochlear Lgr5+ progenitor cells: elicits the expansion
[2]; AS1842856 425 nM combined with VPA 1 mM, EFI background
  enrichment of Lgr5 cells (percentage): enriched
[2]; [10]
  LGR5+ cell growth (Lgr5 GFP(+) Cell Count): concentration-dependent effects; also recorded: enhances expansion of cochlear progenitor cells concentration-dependent manner
  enrichment (Lgr5 GFP (%)): concentration-dependent effects
[2]; images, AS1842856 425 nM, EFI background
  Lgr5-GFP colony formation: promotes Lgr5-GFP colony formation
Jag-1 [4]; [9]
  Jag-1 expression: upregulates Jag-1 expression

## N#Cc1ccc2[nH]c(O)c(-c3ccc(CN4CCOCC4)cn3)c2c1 [AZD 1080]
GSK-3 alpha [6]
  GSK-3 alpha: 6.9 nM

## Cc1c[nH]c(-c2cnc(NCCNc3ccc(C#N)cn3)nc2-c2ccc(Cl)cc2Cl)n1 [CHIR99021]
Jag-1 [5]; agent alone
  Jag-1 upregulation: upregulated Jag-1
[2]; CHIR alone, EFI background
  enrichment (percent LGR5-GFP(+) cell) of cochlear Lgr5 progenitor cells: elicits
[2]; CHIR alone, background 50 ng/mL EGF, bFGF, IGF1 (EFI)
  expansion (LGR5-GFP(+) cell count) of cochlear Lgr5 progenitor cells: elicits the expansion
[2]; [8]
  enrichment of Lgr5 GFP+ cochlear progenitor cells: enrich

## O=C(O)CNC(=O)C1C(=O)N(C2CCCCC2)C(=O)N(C2CCCCC2)C1=O [daprodustat, N-[(1,3-dicyclohexylhexahydro-2,4,6-trioxo-5-pyrimidinyl)carbonyl]-glycine]
[2]; agent alone, EFI background
  enrichment of Lgr5 GFP+ cochlear progenitor cells: does not enrich; also recorded: does not proliferate or enrich
  proliferation of Lgr5 GFP+ cochlear progenitor cells: does not proliferate
[2]; [11]
  Lgr5 GFP+ progenitor cell proliferation: does not enhance Lgr5 GFP+ progenitor cell proliferation
  enrichment of Lgr5 GFP+ progenitor cells: enhances enrichment

## Cc1ccc(C(=O)Nc2c[nH]nc2C(=O)NCCCOC(C)C)cn1 [GSK XXII]
GSK-3 alpha [6]
  GSK-3 alpha: 2.3 nM
[2]; concentration range in Lgr5+ assay, Table 3
  Lgr5+ Assay: 0.2 to 1 µM

## O=C1NC(=O)C(c2cnc3ccccn23)=C1c1cn2c3c(cc(F)cc13)CN(C(=O)N1CCCCC1)CC2 [LY2090314, 3-(9-fluoro-2-(piperidine-1-carbonyl)-1,2,3,4-tetrahydro-[1,4]diazepino[6,7,1-hi]indol-7-yl)-4-(imidazo[1,2-a]pyridin-3-yl)-1H-pyrrole-2,5-dione]
GSK-3 alpha [7]
  GSK-3 alpha: 0.9 nM
GSK-3 alpha [6]
  GSK-3 alpha: 2.1 nM

## VO-Ohpic
Jag-1 [5]; VO-Ohpic 3 μM added to CHIR, versus CHIR
  Jag-1 upregulation: enhanced; also recorded: synergistically enhances Jag-1 upregulation
Jag-1 [5]; agent alone, listed as VO
  Jag-1 upregulation: does not upregulate Jag-1
[2]; [12]
  enrichment (percent LGR5-GFP(+) cell) of cochlear Lgr5 progenitor cells: enhanced
  expansion (LGR5-GFP(+) cell count) of cochlear Lgr5 progenitor cells: enhanced
HDAC [3]
  HDAC inhibition: does not elicit a detectable increase in HDAC inhibition

## Na phenylbutyrate
HDAC [1]
  Class selectivity: Class I >
  HDAC Potenc: 9 to 16 µM

## O=C(O)CNC(=O)c1nc(Cl)c2ccccc2c1O [FG-2216, N-[(1-chloro-4-hydroxy-3-isoquinolinyl)carbonyl]-glycine]
[2]; FG-2216 30 μM with CHIR 4 μM + VPA 1 mM, versus CHIR and CHIR+VPA, EFI background
  Lgr5 GFP+ progenitor cell proliferation: proliferates Lgr5 GFP+ progenitor cell similarly
[2]; FG-2216 30 μM with CHIR 4 μM + VPA 1 mM, versus CHIR+VPA, EFI background
  enrichment of Lgr5 GFP+ progenitor cells: shows a trend for enhanced enrichment
[2]; FG-2216 30 μM with CHIR 4 μM, versus CHIR and CHIR+VPA 1 mM, EFI background
  Lgr5 GFP+ progenitor cell proliferation: enhances Lgr5 GFP+ progenitor cell proliferation
[2]; FG-2216 30 μM with CHIR 4 μM, versus CHIR+VPA 1 mM, EFI background
  enrichment of Lgr5 GFP+ progenitor cells: enhances enrichment; also recorded: enriches Lgr5 GFP+ progenitor cell enrichment
[2]; agent alone, EFI background
  enrichment of Lgr5 GFP+ cochlear progenitor cells: does not enrich; also recorded: does not proliferate or enrich
  proliferation of Lgr5 GFP+ cochlear progenitor cells: does not proliferate

## Jag-1 peptide: soluble Jag-1 peptide (residues 188-204), CDDYYYGFGCNKFCRPR (SEQ ID NO:1) (listed as Homo sapiens)
[2]; 0.25 μM Jag-1 peptide added to 4 μM CHIR, EFI background
  Lgr5+ cell proliferation: able to recapitulate enhancement of Lgr5+ cell proliferation; also recorded: enhances CHIR induced Lgr5+ cell proliferation

## O=C(O)c1c[nH]c2c(ccc3cccnc32)c1=O [1,4-DPCA, 4,4α-dihydro-4-oxo-1,10-phenanthroline-3-carboxylic acid]
[2]; [13]
  Lgr5 GFP+ progenitor cell proliferation: enhances Lgr5 GFP+ progenitor cell proliferation
  enrichment of Lgr5 GFP+ progenitor cells: shows a trend for enrichment; also recorded: enhances Lgr5 GFP+ progenitor cell proliferation and enrichment
[2]; agent alone, EFI background
  enrichment of Lgr5 GFP+ cochlear progenitor cells: does not enrich; also recorded: does not proliferate or enrich
  proliferation of Lgr5 GFP+ cochlear progenitor cells: does not proliferate

## CC(C)(C)C(=O)Nc1ccc2c(c1)C(=O)C(=O)c1ccccc1-2 [SF1670]
[2]; [14]
  enrichment (percent LGR5-GFP(+) cell) of cochlear Lgr5 progenitor cells: further enhanced
  expansion (LGR5-GFP(+) cell count) of cochlear Lgr5 progenitor cells: further enhanced
